Assays:
LKB1 = target: T1, LKB1 (Homo sapiens, UniProt Q15831); test: Kinase profiling LKB1; assay type: biochemical; conditions: 100 micromolar inhibitor concentration, 100 is no change; for remaining activity at 100 µM: read-out: residual kinase activity, LKB1
T1 sequence (Q15831 1-433): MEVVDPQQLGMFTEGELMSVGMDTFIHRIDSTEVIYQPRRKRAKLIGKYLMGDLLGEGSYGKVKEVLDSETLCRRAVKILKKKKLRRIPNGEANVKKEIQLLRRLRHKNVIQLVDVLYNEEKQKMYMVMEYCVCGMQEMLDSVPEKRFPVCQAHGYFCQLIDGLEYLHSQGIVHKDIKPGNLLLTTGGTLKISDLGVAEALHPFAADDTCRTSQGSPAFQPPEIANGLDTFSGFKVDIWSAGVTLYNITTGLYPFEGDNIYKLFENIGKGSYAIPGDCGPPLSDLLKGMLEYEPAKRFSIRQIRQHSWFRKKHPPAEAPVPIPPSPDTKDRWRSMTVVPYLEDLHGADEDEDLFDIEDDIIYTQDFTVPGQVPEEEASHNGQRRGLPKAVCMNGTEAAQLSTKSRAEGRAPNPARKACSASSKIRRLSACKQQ
T1 sequence (Q7RTN6 1-431 partner): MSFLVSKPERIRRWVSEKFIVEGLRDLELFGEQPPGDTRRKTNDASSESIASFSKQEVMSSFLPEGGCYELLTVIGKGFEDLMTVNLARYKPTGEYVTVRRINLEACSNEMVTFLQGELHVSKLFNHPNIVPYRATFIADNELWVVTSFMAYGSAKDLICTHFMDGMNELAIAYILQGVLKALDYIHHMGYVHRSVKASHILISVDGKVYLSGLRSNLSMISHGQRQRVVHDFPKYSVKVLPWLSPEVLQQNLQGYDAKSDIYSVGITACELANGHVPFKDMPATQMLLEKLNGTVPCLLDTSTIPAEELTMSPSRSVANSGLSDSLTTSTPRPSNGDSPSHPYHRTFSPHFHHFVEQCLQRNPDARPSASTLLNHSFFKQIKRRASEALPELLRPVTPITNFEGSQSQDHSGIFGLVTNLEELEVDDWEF
T1 sequence (Q9Y376 1-341 partner): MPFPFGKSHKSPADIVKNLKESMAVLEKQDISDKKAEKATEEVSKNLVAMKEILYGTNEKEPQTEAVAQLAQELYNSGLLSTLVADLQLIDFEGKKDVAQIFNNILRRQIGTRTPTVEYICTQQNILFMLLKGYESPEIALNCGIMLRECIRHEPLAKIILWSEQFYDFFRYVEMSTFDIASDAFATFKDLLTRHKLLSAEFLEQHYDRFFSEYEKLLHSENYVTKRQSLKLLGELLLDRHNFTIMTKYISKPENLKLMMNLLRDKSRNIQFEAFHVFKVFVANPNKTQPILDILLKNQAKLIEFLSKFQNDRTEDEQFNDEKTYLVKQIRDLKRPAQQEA
Text: (§1) Any value less that 25 is considered to be highly significant inhibition.

PKCγ = PKCγ (Homo sapiens, UniProt P05129); test: Kinase profiling PKCγ; assay type: biochemical; conditions: 100 micromolar inhibitor concentration, 100 is no change; for remaining activity at 100 µM: read-out: residual kinase activity, PKCγ
Text: as §1

CAMKKb = CAMKKb (Homo sapiens, UniProt Q96RR4); test: Kinase profiling CAMKKb; assay type: biochemical; conditions: 100 micromolar inhibitor concentration, 100 is no change; for remaining activity at 100 µM: read-out: residual kinase activity, CAMKKb
Text: as §1

S6K1 = S6K1 (Homo sapiens, UniProt P23443); test: Kinase profiling S6K1; assay type: biochemical; conditions: 100 micromolar inhibitor concentration, 100 is no change; for remaining activity at 100 µM: read-out: residual kinase activity, S6K1
Text: as §1

PAK4 = PAK4 (Homo sapiens, UniProt O96013); test: Kinase profiling PAK4; assay type: biochemical; conditions: 100 micromolar inhibitor concentration, 100 is no change; for remaining activity at 100 µM: read-out: residual kinase activity, PAK4
Text: as §1

TAK1 = target: T2, TAK1 (Homo sapiens, UniProt O43318); test: Kinase profiling TAK1; assay type: biochemical; conditions: 100 micromolar inhibitor concentration, 100 is no change; for remaining activity at 100 µM: read-out: residual kinase activity, TAK1
T2 sequence (O43318 1-303 limits assumed): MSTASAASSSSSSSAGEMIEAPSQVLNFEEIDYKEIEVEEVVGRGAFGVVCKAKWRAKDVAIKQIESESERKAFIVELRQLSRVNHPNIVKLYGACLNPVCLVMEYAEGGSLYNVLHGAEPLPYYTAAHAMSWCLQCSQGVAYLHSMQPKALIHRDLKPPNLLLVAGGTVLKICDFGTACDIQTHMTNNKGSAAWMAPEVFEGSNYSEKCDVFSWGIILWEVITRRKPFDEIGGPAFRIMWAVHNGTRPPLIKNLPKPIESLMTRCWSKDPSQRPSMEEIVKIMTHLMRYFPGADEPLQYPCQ
T2 sequence (Q15750 437-504 partner limits assumed): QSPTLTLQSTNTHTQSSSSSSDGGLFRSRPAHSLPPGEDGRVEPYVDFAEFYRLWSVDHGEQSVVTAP
Text: as §1

MKK6 = target: T3, MKK6 (Homo sapiens, UniProt P52564); test: Kinase profiling MKK6; assay type: biochemical; conditions: 100 micromolar inhibitor concentration, 100 is no change; for remaining activity at 100 µM: read-out: residual kinase activity, MKK6
T3 sequence (P52564 1-334): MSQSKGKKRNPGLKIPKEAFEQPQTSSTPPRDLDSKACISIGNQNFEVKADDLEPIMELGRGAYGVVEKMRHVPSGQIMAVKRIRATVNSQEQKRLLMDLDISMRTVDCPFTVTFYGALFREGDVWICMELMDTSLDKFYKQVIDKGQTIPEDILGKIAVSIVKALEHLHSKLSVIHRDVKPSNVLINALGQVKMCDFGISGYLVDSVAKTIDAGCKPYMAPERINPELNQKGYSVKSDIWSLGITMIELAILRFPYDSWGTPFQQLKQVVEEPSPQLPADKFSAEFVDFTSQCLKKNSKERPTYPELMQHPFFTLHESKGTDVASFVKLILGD
Text: as §1

MST2 = target: T4, MST2 (Homo sapiens, UniProt Q13188); test: Kinase profiling MST2; assay type: biochemical; conditions: 100 micromolar inhibitor concentration, 100 is no change; for remaining activity at 100 µM: read-out: residual kinase activity, MST2
T4 sequence (Q13188 1-491): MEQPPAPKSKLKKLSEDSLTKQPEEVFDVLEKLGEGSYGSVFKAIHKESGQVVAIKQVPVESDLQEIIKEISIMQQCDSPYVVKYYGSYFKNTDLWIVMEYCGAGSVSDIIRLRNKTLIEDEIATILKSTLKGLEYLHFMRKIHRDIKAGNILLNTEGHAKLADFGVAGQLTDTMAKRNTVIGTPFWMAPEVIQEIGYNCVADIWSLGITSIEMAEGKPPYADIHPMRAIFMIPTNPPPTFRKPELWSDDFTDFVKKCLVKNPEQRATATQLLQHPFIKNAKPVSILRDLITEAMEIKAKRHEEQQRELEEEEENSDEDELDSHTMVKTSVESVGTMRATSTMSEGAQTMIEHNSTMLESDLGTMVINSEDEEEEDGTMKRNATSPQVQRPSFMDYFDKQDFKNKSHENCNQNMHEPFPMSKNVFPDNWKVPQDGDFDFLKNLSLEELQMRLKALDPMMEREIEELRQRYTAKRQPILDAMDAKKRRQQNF
Text: as §1

AMPK (hum) = test: Kinase profiling AMPK (hum); assay type: biochemical, human; conditions: 100 micromolar inhibitor concentration; 100 is no change
Text: as §1

HIPK2 = HIPK2 (Homo sapiens, UniProt Q9H2X6); test: Kinase profiling HIPK2; assay type: biochemical; conditions: 100 micromolar inhibitor concentration, 100 is no change; for remaining activity at 100 µM: read-out: residual kinase activity, HIPK2
Text: as §1

RSK2 = RSK2 (Homo sapiens, UniProt P51812); test: Kinase profiling RSK2; assay type: biochemical; conditions: 100 micromolar inhibitor concentration, 100 is no change; for remaining activity at 100 µM: read-out: residual kinase activity, RSK2
Text: as §1

STK33 = STK33 (Homo sapiens, UniProt Q9BYT3); test: Kinase profiling STK33; assay type: biochemical; conditions: 100 micromolar inhibitor concentration, 100 is no change; for remaining activity at 100 µM: read-out: residual kinase activity, STK33
Text: as §1

S6K1, sequence (P23443 whole entry, species assumed): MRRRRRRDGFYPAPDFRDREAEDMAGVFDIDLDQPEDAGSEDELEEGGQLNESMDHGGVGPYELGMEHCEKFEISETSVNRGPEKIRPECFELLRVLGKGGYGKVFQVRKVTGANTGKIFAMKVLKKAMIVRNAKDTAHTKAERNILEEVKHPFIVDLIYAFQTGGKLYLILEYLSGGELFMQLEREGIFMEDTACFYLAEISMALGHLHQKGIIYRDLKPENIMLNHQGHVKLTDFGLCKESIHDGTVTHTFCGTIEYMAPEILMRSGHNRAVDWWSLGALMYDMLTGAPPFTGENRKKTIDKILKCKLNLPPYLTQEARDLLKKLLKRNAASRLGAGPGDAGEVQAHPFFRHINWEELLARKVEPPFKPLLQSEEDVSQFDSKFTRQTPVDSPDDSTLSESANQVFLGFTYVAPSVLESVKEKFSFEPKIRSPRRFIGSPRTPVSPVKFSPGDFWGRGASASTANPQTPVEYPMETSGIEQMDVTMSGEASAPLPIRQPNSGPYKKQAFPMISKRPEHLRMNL
CAMKKb, sequence (Q96RR4 whole entry, species assumed): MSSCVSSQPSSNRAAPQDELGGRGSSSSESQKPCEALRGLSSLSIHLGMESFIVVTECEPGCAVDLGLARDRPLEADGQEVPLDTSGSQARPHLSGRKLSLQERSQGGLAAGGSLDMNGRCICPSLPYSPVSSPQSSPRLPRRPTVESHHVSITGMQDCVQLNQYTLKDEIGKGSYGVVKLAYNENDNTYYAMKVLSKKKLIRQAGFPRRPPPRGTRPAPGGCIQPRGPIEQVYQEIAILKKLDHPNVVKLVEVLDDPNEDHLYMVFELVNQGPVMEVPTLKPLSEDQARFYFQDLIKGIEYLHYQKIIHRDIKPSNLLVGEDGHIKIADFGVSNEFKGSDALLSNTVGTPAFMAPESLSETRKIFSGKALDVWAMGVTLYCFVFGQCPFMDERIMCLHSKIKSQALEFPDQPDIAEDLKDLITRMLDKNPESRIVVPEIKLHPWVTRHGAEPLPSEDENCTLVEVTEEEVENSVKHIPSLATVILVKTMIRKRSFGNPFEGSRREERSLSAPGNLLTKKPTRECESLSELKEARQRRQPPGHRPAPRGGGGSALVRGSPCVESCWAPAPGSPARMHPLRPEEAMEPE
STK33, sequence (Q9BYT3 whole entry, species assumed): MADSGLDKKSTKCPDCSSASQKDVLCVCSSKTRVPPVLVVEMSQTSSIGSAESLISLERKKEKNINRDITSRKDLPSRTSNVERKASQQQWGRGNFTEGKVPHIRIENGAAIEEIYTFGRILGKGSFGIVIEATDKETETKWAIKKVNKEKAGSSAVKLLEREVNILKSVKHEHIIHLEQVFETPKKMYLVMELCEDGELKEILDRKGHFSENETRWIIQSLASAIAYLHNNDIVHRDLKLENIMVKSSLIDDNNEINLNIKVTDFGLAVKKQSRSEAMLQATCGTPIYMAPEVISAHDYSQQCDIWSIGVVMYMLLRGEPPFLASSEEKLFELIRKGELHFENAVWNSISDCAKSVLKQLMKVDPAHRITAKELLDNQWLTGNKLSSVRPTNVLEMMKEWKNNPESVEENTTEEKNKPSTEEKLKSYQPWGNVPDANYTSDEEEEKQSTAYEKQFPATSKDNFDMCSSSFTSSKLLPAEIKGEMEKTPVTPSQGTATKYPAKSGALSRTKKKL
RSK2, sequence (P51812 whole entry, species assumed): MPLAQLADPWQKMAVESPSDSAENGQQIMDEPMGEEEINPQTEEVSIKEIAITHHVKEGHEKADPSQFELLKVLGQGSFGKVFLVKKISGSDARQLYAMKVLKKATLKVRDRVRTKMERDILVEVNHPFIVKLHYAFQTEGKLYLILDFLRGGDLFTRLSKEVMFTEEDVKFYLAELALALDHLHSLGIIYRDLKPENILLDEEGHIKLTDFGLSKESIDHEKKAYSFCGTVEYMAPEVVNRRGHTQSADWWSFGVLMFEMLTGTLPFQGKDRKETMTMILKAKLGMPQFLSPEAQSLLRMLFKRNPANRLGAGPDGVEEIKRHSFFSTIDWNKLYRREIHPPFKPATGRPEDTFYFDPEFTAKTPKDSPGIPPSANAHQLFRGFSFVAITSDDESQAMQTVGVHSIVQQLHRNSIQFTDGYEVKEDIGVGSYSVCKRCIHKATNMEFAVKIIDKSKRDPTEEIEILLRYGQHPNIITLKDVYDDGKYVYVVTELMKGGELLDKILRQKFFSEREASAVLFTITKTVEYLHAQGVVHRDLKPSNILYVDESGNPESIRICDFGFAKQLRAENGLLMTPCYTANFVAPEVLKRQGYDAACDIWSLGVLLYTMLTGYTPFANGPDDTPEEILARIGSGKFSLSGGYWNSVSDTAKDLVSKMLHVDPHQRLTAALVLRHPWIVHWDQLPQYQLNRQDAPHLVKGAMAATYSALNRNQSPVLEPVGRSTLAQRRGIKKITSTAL
HIPK2, sequence (Q9H2X6 whole entry, species assumed): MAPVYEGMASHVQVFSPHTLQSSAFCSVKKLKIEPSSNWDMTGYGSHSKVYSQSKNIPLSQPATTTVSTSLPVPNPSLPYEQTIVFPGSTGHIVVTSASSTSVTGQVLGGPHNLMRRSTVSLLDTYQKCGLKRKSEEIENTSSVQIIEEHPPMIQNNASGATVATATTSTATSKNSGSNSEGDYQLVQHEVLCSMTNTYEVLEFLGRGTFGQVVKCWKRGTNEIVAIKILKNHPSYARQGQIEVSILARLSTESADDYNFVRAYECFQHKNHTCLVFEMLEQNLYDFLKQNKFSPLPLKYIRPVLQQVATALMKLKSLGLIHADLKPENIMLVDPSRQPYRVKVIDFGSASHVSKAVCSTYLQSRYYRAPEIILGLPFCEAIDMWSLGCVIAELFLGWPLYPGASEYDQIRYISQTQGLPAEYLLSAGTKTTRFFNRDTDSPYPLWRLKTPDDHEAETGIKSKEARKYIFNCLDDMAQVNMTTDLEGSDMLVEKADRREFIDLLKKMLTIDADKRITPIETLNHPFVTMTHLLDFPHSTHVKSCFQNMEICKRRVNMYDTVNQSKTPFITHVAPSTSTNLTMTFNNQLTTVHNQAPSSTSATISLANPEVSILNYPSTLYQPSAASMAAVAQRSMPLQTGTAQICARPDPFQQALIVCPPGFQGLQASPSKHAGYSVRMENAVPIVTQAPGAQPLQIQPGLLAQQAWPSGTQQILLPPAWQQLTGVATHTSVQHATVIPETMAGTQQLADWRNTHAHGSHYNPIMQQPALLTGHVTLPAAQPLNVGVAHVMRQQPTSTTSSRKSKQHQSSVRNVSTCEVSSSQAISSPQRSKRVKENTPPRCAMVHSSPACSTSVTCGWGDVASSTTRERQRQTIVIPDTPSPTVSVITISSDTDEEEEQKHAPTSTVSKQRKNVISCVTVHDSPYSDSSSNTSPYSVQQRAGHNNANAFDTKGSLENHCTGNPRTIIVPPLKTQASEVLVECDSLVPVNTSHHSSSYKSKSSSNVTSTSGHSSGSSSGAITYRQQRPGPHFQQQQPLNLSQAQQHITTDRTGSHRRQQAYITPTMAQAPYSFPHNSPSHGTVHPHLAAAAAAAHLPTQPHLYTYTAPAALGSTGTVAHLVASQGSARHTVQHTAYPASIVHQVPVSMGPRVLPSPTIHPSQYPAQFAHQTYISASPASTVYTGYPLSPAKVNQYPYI
PAK4, sequence (O96013 whole entry, species assumed): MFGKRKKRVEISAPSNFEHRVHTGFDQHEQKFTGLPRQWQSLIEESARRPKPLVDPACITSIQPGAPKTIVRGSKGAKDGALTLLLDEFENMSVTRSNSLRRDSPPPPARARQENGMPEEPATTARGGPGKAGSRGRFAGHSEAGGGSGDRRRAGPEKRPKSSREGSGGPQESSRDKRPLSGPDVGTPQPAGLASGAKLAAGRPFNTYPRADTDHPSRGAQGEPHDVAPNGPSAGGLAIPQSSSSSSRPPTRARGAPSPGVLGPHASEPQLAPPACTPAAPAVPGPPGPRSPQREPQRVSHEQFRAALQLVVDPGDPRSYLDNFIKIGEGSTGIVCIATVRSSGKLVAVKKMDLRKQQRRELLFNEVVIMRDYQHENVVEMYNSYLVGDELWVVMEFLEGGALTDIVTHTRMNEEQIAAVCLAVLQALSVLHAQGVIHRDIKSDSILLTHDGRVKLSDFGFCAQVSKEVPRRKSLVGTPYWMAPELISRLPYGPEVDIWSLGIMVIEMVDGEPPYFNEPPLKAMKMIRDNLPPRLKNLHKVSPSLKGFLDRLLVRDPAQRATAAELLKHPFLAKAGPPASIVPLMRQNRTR

Row | Structure (SMILES) | remaining activity at 100 µM (LKB1) | remaining activity at 100 µM (PKCγ) | remaining activity at 100 µM (CAMKKb) | remaining activity at 100 µM (S6K1) | remaining activity at 100 µM (PAK4) | remaining activity at 100 µM (TAK1) | remaining activity at 100 µM (MKK6) | remaining activity at 100 µM (MST2) | residual kinase activity, AMPK (hum) (AMPK (hum)) | residual kinase activity, LKB1 (LKB1) | residual kinase activity, PKCγ (PKCγ) | residual kinase activity, CAMKKb (CAMKKb) | residual kinase activity, S6K1 (S6K1) | residual kinase activity, PAK4 (PAK4) | residual kinase activity, TAK1 (TAK1) | residual kinase activity, MKK6 (MKK6) | residual kinase activity, MST2 (MST2) | residual kinase activity, HIPK2 (HIPK2) | residual kinase activity, RSK2 (RSK2) | residual kinase activity, STK33 (STK33) | also measured
1 | COc1ccc2sc(NC(C)=O)nc2c1 [Compound 03-21] | 93% | 103% | 87% | 63% | 94% | 50% | 117% | 91% | 81 |  |  |  |  |  |  |  |  |  |  |  | remaining activity at 100 µM (HIPK2): 25%; remaining activity at 100 µM (RSK2): 94%; remaining activity at 100 µM (STK33): 81%
2 | CC(=O)Nc1nc2ccccc2s1 [Compound 03-32] |  |  |  |  |  |  |  |  | 86 | 97 | 94 | 101 | 92 | 75 | 76 | 85 | 88 | 51 | 105 | 104 | 
3 | O=C(Nc1nc2cc(O)ccc2s1)c1cccnc1 [Compound 03-33] |  |  |  |  |  |  |  |  | 87 | 83 | 103 | 69 | 75 | 92 | 73 | 122 | 73 | 52 | 85 | 70 | 
4 | O=C(Nc1nc2ccc(O)cc2s1)c1ccccc1 [Compound 03-60] |  |  |  |  |  |  |  |  | 27 | 68 | 83 | 37 | 11 | 35 | 9 | 109 | 40 | 8 | 34 | 38 | 
5 | CC(=O)Nc1nc2cc(C(F)(F)F)ccc2s1 [Compound 03-73] | 98% | 106% | 65% | 77% | 71% | 45% | 120% | 80% | 62 |  |  |  |  |  |  |  |  |  |  |  | remaining activity at 100 µM (HIPK2): 51%; remaining activity at 100 µM (RSK2): 83%; remaining activity at 100 µM (STK33): 86%
6 | CC(=O)Nc1nc2cc(C)ccc2s1 [Compound 03-76] |  |  |  |  |  |  |  |  | 69 | 96 | 106 | 71 | 77 | 101 | 52 | 113 | 75 | 51 | 96 | 80 | 
7 | CC(=O)Nc1nc2cc(F)ccc2s1 [Compound 03-77] | 85% | 102% | 74% | 48% | 97% | 46% | 118% | 80% | 80 |  |  |  |  |  |  |  |  |  |  |  | remaining activity at 100 µM (HIPK2): 22%; remaining activity at 100 µM (RSK2): 83%; remaining activity at 100 µM (STK33): 70%

— US10231954B2, “Neurodegenerative therapies” (LYTIX BIOPHARMA AS, priority 2014, dated 2019)
